Data: patent publication US12648946B2, “Combination of antibody-pyrrolobenzodiazepine derivative conjugate and PARP inhibitor” (DAIICHI SANKYO COMPANY, LIMITED, priority 2019, dated 2026)
Read-outs that look alike come from different tables or passages of the source.

Legend:
[1] = tested on: human pharyngeal cancer cell line FaDu; assay: Cell growth inhibition test (3); assay type: cell-based; details: 144 h
Protocol: The human pharyngeal cancer cell line FaDu obtained from ATCC (American Type Culture Collection) was used for evaluation. Cells were prepared with MEM containing 10% fetal bovine serum (GE Healthcare), MEM Non-Essential Amino Acids Solution (Thermo Fisher Scientific), and Sodium Pyruvate (Thermo Fisher Scientific) (Thermo Fisher Scientific; hereinafter, referred to as EMEM medium) to reach 6.25×10^3 cells/mL, and 80 μL portions of them were added into a 96-well cell culture microplate. After addition of the cells, the cells were cultured at 37° C. and 5% CO2 overnight.
On the next day, 10 μL portions of pyrrolobenzodiazepine derivative A, B, or C diluted with EMEM medium to 100 pM, 50 pM, 25 pM, 12.5 pM, 6.25 pM, 3.13 pM, 1.56 pM, or 0.78 pM were added to the microplate. To each well without any pyrrolobenzodiazepine derivative, 10 μL of EMEM medium was added. Further, 10 μL portions of talazoparib prepared with EMEM medium to reach 2 nM were added to the microplate. To each well without talazoparib, 10 μL of EMEM medium was added. Thereafter, the microplate was cultured at 37° C. and 5% CO2 for 6 days. After culturing, the microplate was taken out of the incubator, and left to stand at room temperature for 30 minutes. CellTiter-Glo Luminescent Cell Viability Assay (Promega Corporation) in an amount equivalent to that of the culture solution was added, and stirred using a plate mixer. The microplate was left to stand at room temperature for 10 minutes, and thereafter the amount of emission was measured by using a plate reader (PerkinElmer).
Cell survival rates in wells with derivative A, B, or C were calculated by using the following formula.
[formula] • a: Mean value of amounts of emission from wells with derivative A, B, or C • b: Mean value of amounts of emission from wells with medium • IC50 values were calculated by using the following formula.
(§1) [formula] • a: Concentration of derivative A, B, or C, a • b: Concentration of derivative A, B, or C, b • c: Cell survival rate when derivative A, B, or C of concentration a was added • d: Cell survival rate when derivative A, B, or C of concentration b was added • a and b satisfy a>b at points sandwiching a cell survival rate of 50%.
Cell survival rates in wells with derivative A, B, or C added together with 2 nM talazoparib were calculated by using the following formula.
[formula] • a: Mean value of amounts of emission from wells with derivative A, B, or C added together with 2 nM talazoparib • b: Mean value of amounts of emission from wells with 2 nM talazoparib • IC50 values were calculated by using the following formula.
as §1, with “and 2 nM talazoparib were” for “was”

[2] = tested on: human breast cancer cell line JIMT-1; assay: Antitumor test (2), subcutaneous xenograft; assay type: in vivo, mouse; details: single administration
Protocol: (§2) Mouse: Five- to six-week-old female BALB/c nude mice (Charles River Laboratories Japan, Inc.) were subjected to experiment. Assay and calculation formula: In all of the studies, the major axis and minor axis of a tumor were measured twice a week by using an electronic digital caliper ([…] Corp.), and the tumor volume (mm^3) was calculated. The calculation formula is as shown below. [formula] Each of the anti-CLDN6 antibody-drug conjugate ADC1, the anti-HER2 antibody-drug conjugate ADC2, and the anti-TROP2 antibody-drug conjugate ADC3 was diluted with ABS buffer (10 mM acetate buffer (pH 5.5), 5% sorbitol), and a liquid volume of 10 mL/kg was intravenously administered into the tail vein. […] LLC)/Dulbecco's Phosphate-Buffered Saline, and then a liquid volume of 10 mL/kg was intraperitoneally administered. […] LLC)/Dulbecco's Phosphate-Buffered Saline, and then a liquid volume of 10 mL/kg was orally administered. Niraparib was dissolved in DMSO, diluted with 0.5% methylcellulose, and then a liquid volume of 10 mL/kg was orally administered. The described method is common to Examples 34 to 37. […]

[3] = tested on: human pancreatic cancer cell line CFPAC-1; assay: Antitumor test (1), subcutaneous xenograft; assay type: in vivo, mouse; details: single administration, talazoparib 0.8 mg/kg oral for 5 days from Day 0, Day 35, CFPAC-1
Protocol: as §2

COc1ccc(C2=CN3C(=O)c4cc(OC)c(OCCCCCOc5cc6c(cc5OC)C(=O)N5CC7(CC7)C[C@H]5C=N6)cc4NC[C@@H]3C2)cc1 [derivative A, (11a′S)-7′-Methoxy-8′-[(5-{[(11aS)-7-methoxy-2-(4-methoxyphenyl)-5-oxo-5,10,11,11a-tetrahydro-1H-pyrrolo[2,1-c][1,4]benzodiazepin-8-yl]oxy}pentyl)oxy]-1′,11a′-dihydro-5′H-spiro[cyclopropane-1,2′-pyrrolo[2,1-c][1,4]benzodiazepine]-5′-one] gave an IC50 ([1]; read-out: IC50, growth-suppressing effect, added singly, FaDu, 6 days (test 3)) of 7.7 pM and an IC50 ([1]; read-out: IC50, growth-suppressing effect, added together with 2 nM talazoparib, FaDu, 6 days) of 4.7 pM.

For O=C(c1cc(Cc2n[nH]c(=O)c3ccccc23)ccc1F)N1CCN(C(=O)C2CC2)CC1 [olaparib, reference compound], the tumor growth-suppressing effect ([2]; olaparib 50 mg/kg i.p. for 5 days from Day 0, JIMT-1) was “No tumor growth-suppressing effect”.

Cn1ncnc1[C@H]1c2n[nH]c(=O)c3cc(F)cc(c23)N[C@@H]1c1ccc(F)cc1 [talazoparib] was tested, and the inhibition at 0.002 µM ([1]; 2 nM talazoparib alone, 6 days) was under 10%, the “tumor growth inhibition (TGI)” value [3] was 17% and the tumor growth-suppressing effect ([2]; talazoparib 0.8 mg/kg oral for 5 days from Day 0, JIMT-1) was “No tumor growth-suppressing effect”.
